From US9346799B2, “Useful combinations of monobactam antibiotics with beta-lactamase inhibitors” (Basilea Pharmaceutica AG, priority 2005, dated 2016)

Experiments:
Assay in all cases: MIC by broth microdilution (NCCLS M7-A5)
[1] = tested on: Pseudomonas aeruginosa 1973E
[2] = tested on: Stenotrophomonas malthophilia 1AC736; conditions: Stenotrophomonas maltophilia 1AC736
[3] = tested on: Serratia marcescens S6
[4] = tested on: Pseudomonas aeruginosa MK1184
[5] = tested on: Acinetobacter sp. J2; conditions: Acinetobacter baumannii J2
[6] = tested on: Klebsiella pneumoniae CF104
[7] = tested on: Enterobacter cloacae P99
[8] = + 102 + clavulanate, 4 mg/L each
[9] = + 324 + clavulanate, 4 mg/L each

Row | Structure (SMILES) | MIC of antibiotic [1, 8] [µg/mL] | MIC of antibiotic ([1]; antibiotic alone) [µg/mL] | MIC of antibiotic [2, 8] [µg/mL] | MIC of antibiotic ([2]; antibiotic alone) [µg/mL] | MIC of antibiotic [3, 8] [µg/mL] | MIC of antibiotic ([3]; antibiotic alone) [µg/mL] | MIC of antibiotic [4, 8] [µg/mL] | MIC of antibiotic ([4]; antibiotic alone) [µg/mL] | MIC of antibiotic [5, 8] [µg/mL] | MIC of antibiotic ([5]; antibiotic alone) [µg/mL] | MIC of antibiotic [6, 8] [µg/mL] | MIC of antibiotic ([6]; antibiotic alone) [µg/mL] | MIC of antibiotic [7, 8] [µg/mL] | MIC of antibiotic ([7]; antibiotic alone) [µg/mL] | MIC of antibiotic [1, 9] [µg/mL] | MIC of antibiotic [2, 9] [µg/mL] | MIC of antibiotic [3, 9] [µg/mL] | MIC of antibiotic [4, 9] [µg/mL] | MIC of antibiotic [5, 9] [µg/mL] | MIC of antibiotic [6, 9] [µg/mL] | other results
1 | CC1C(NC(=O)C(=NOCc2cc(=O)c(O)cn2O)c2csc(NC=O)n2)C(=O)N1S(=O)(=O)O (stereo not drawn) [Compound 28] | 16 | >32 | 8 | 8 | 16 | 8 | 32 | >32 | >32 | >32 | 2 | >32 | 32 | >32 | – | – | – | – | – | – | –
2 | C[C@H]1[C@H](NC(=O)/C(=N\OCc2cc(=O)c(O)cn2O)c2nc(N)sc2Cl)C(=O)N1OS(=O)(=O)O [Compound 29, (3S,4S)-3-{(2Z)-2-(2-amino-5-chloro(1,3-thiazol-4-yl))-3-[(1,5-dihydroxy-4-oxo(2-hydropyridyl))methoxy]-3-azaprop-2-enoylamino}-4-methyl-2-oxoazetidinyl hydroxysulfonate] | 8 | 4 | 0.5 | 1 | 1 | 32 | 8 | >32 | >32 | >32 | 0.5 | >32 | 0.25 | >32 | – | – | – | – | – | – | MIC of antibiotic ([1]; + 102 + sulbactam, 4 mg/L each): 8 µg/mL; MIC of antibiotic ([1]; + 323 + sulbactam, 4 mg/L each): 8 µg/mL; MIC of antibiotic ([2]; + 102 + sulbactam, 4 mg/L each): 1 µg/mL; MIC of antibiotic ([2]; + 323 + sulbactam, 4 mg/L each): 1 µg/mL; MIC of antibiotic ([3]; + 102 + sulbactam, 4 mg/L each): 8 µg/mL; MIC of antibiotic ([3]; + 323 + sulbactam, 4 mg/L each): 8 µg/mL; MIC of antibiotic ([4]; + 102 + sulbactam, 4 mg/L each): 4 µg/mL; MIC of antibiotic ([4]; + 323 + sulbactam, 4 mg/L each): 8 µg/mL; MIC of antibiotic ([5]; + 102 + sulbactam, 4 mg/L each): 2 µg/mL; MIC of antibiotic ([5]; + 323 + sulbactam, 4 mg/L each): 2 µg/mL; MIC of antibiotic ([6]; + 102 + sulbactam, 4 mg/L each): 2 µg/mL; MIC of antibiotic ([6]; + 323 + sulbactam, 4 mg/L each): 2 µg/mL; MIC of antibiotic ([7]; + 102 + sulbactam, 4 mg/L each): 8 µg/mL; MIC of antibiotic ([7]; + 323 + sulbactam, 4 mg/L each): 8 µg/mL
3 | CC1(C)C(NC(=O)C(=NOCc2cc(=O)c(O)cn2O)c2nsc(N)n2)C(=O)N1OS(=O)(=O)O (stereo not drawn) [Compound 32] | 16 | – | 0.5 | – | 0.5 | – | 4 | – | >32 | – | >32 | 2 | 32 | – | 8 | 0.5 | 0.25 | 4 | 4 | 1 | MIC of antibiotic [7, 9]: 8 µg/mL
4 | CC1(C)C(NC(=O)C(=NOCc2cc(=O)c(O)cn2O)c2csc(N)n2)C(=O)N1OCC(=O)O (stereo not drawn) [Compound 33] | 32 | 16 | 2 | 2 | 0.5 | 0.25 | 32 | 32 | >32 | 8 | 2 | 0.5 | 32 | 16 | 16 | 2 | 0.25 | 16 | 16 | 0.5 | MIC of antibiotic [7, 9]: 4 µg/mL
